Assay results published in US20210386367A1, “DEVICES AND SYSTEMS FOR GASTROINTESTINAL MICROBIOME DETECTION AND MANIPULATION” (Progenity, Inc., priority 2018, published 2021).
Values after ≈ are worked out from the molar mass of the structure shown. Where two headings read alike, the source gives them in different places.

Legend:
Pseudomonas aeruginosa = experiment: Broth microdilution MIC, 50 clinical isolates; format: cell-based
Method in brief: (§1)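 CLSI broth microdilution in cation-adjusted Mueller Hinton broth, with 3% lysed horse blood added for streptococci. Two-fold dilutions, inoculum ~5×10^5 CFU/mL, 35° C for 16-24 hr in ambient air (streptococci with CO2 planchets). MIC = lowest concentration inhibiting visible growth.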

Enterobacter aerogenes = experiment: Broth microdilution MIC, 50 clinical isolates; format: cell-based
Method in brief: as §1

Proteus mirabilis = experiment: Broth microdilution MIC, 50 clinical isolates; format: cell-based
Method in brief: as §1

S. pneumoniae ATCC 49619 = experiment: Broth microdilution MIC (time-kill study); format: cell-based, Streptococcus pneumoniae; details: S. pneumoniae ATCC 49619
[1] = tested on: E. coli ATCC 35218 (TEM-1 β-lactamase producer); experiment: Broth microdilution MIC (time-kill study); format: cell-based, Escherichia coli; details: E. coli ATCC 35218
SIBO Bacteria = details: cited from earlier work
E. coli ATCC 25922 = experiment: Broth microdilution MIC (time-kill study); format: cell-based, Escherichia coli; details: E. coli ATCC 25922
Clostridium spp. = experiment: Agar dilution MIC, 10 clinical isolates; format: cell-based; details: 10 Clostridium spp. clinical isolates

## piperacillin/tazobactam [piperacillin-tazobactam]
Pseudomonas aeruginosa
  % I: 14%
  % R: 22%
  % S: 64%
  MIC50: 8 µg/mL
  MIC90: >128 µg/mL
  Mode: 4 µg/mL
Pseudomonas aeruginosa; 2 μg/mL
  Cumulative percentage of isolates inhibited at MIC: 6.0%
  Number of test isolates at MIC: 3
Pseudomonas aeruginosa; 4 μg/mL
  Cumulative percentage of isolates inhibited at MIC: 40.0%
  Number of test isolates at MIC: 17
Pseudomonas aeruginosa; 8 μg/mL
  Cumulative percentage of isolates inhibited at MIC: 60.0%
  Number of test isolates at MIC: 10
Pseudomonas aeruginosa; 16 μg/mL
  Cumulative percentage of isolates inhibited at MIC: 64.0%
  Number of test isolates at MIC: 2
Pseudomonas aeruginosa; 32 μg/mL
  Cumulative percentage of isolates inhibited at MIC: 74.0%
  Number of test isolates at MIC: 5
Pseudomonas aeruginosa; 64 μg/mL
  Cumulative percentage of isolates inhibited at MIC: 78.0%
  Number of test isolates at MIC: 2
Pseudomonas aeruginosa; 128 μg/mL
  Cumulative percentage of isolates inhibited at MIC: 84.0%
  Number of test isolates at MIC: 3
Pseudomonas aeruginosa; >128 μg/mL
  Cumulative percentage of isolates inhibited at MIC: 100.0%
  Number of test isolates at MIC: 8
Enterobacter aerogenes
  % I: 16%
  % R: 8%
  % S: 76%
  MIC50: 4 µg/mL
  MIC90: 64 µg/mL
  Mode: 2 µg/mL
Enterobacter aerogenes; 1 μg/mL
  Cumulative percentage of isolates inhibited at MIC: 4.0%
  Number of test isolates at MIC: 2
Enterobacter aerogenes; 2 μg/mL
  Cumulative percentage of isolates inhibited at MIC: 38.0%
  Number of test isolates at MIC: 17
Enterobacter aerogenes; 4 μg/mL
  Cumulative percentage of isolates inhibited at MIC: 62.0%
  Number of test isolates at MIC: 12
Enterobacter aerogenes; 8 μg/mL
  Cumulative percentage of isolates inhibited at MIC: 74.0%
  Number of test isolates at MIC: 6
Enterobacter aerogenes; 16 μg/mL
  Cumulative percentage of isolates inhibited at MIC: 76.0%
  Number of test isolates at MIC: 1
Enterobacter aerogenes; 32 μg/mL
  Cumulative percentage of isolates inhibited at MIC: 88.0%
  Number of test isolates at MIC: 6
Enterobacter aerogenes; 64 μg/mL
  Cumulative percentage of isolates inhibited at MIC: 92.0%
  Number of test isolates at MIC: 2
Enterobacter aerogenes; 128 μg/mL
  Cumulative percentage of isolates inhibited at MIC: 98.0%
  Number of test isolates at MIC: 3
Enterobacter aerogenes; >128 μg/mL
  Cumulative percentage of isolates inhibited at MIC: 100.0%
  Number of test isolates at MIC: 1
Proteus mirabilis
  % S: 100%
  MIC50: 0.25 µg/mL
  MIC90: 1 µg/mL
  MIC range: ≤0.12 to 2 µg/mL
  Mode: 0.25 µg/mL
Proteus mirabilis; 0.5 μg/mL
  Cumulative percentage of isolates inhibited at MIC: 82.0%
  Number of test isolates at MIC: 16
Proteus mirabilis; 1 μg/mL
  Cumulative percentage of isolates inhibited at MIC: 96.0%
  Number of test isolates at MIC: 7
Proteus mirabilis; 2 μg/mL
  Cumulative percentage of isolates inhibited at MIC: 100.0%
  Number of test isolates at MIC: 2
Proteus mirabilis; […]
  Cumulative percentage of isolates inhibited at MIC: 50.0%
  Number of test isolates at MIC: 22
Proteus mirabilis; ≤[…]
  Cumulative percentage of isolates inhibited at MIC: 6.0%
  Number of test isolates at MIC: 3
S. pneumoniae ATCC 49619
  MIC: 1 µg/mL
[1]
  MIC: 2/4
SIBO Bacteria
  activity against SIBO organisms: active against SIBO organisms
E. coli ATCC 25922
  MIC: 4/4

## Cc1ncc([N+](=O)[O-])n1CCO [MTZ]
Clostridium spp.
  % S: 100%
  MIC50: 1 µg/mL (≈ 5.84 µM)
  MIC90: 1 µg/mL (≈ 5.84 µM)
  MIC range: 0.12 to 2 µg/mL
Clostridium spp.; modal MIC
  Mode: 1 µg/mL

## COc1c(N2C[C@@H]3CCCN[C@@H]3C2)c(F)cc2c(=O)c(C(=O)O)cn(C3CC3)c12 [moxifloxacin]
Pseudomonas aeruginosa
  MIC range: 0.12-32 ^ μg/mL
  Mode: 1 µg/mL
Pseudomonas aeruginosa; 0.5 μg/mL
  Cumulative percentage of isolates inhibited at MIC: 20.0%
  Number of test isolates at MIC: 8
Pseudomonas aeruginosa; 1 μg/mL
  Cumulative percentage of isolates inhibited at MIC: 58.0%
  Number of test isolates at MIC: 19
Pseudomonas aeruginosa; 2 μg/mL
  Cumulative percentage of isolates inhibited at MIC: 60.0%
  Number of test isolates at MIC: 1
Pseudomonas aeruginosa; 4 μg/mL
  Cumulative percentage of isolates inhibited at MIC: 66.0%
  Number of test isolates at MIC: 3
Pseudomonas aeruginosa; 8 μg/mL
  Cumulative percentage of isolates inhibited at MIC: 78.0%
  Number of test isolates at MIC: 6
Pseudomonas aeruginosa; 16 μg/mL
  Cumulative percentage of isolates inhibited at MIC: 90.0%
  Number of test isolates at MIC: 6
Pseudomonas aeruginosa; 32 μg/mL
  Cumulative percentage of isolates inhibited at MIC: 100.0%
  Number of test isolates at MIC: 5
Pseudomonas aeruginosa; Pseudomonas aeruginosa, read-out: MIC50
  MIC50: 1 µg/mL (≈ 2.49 µM)
Pseudomonas aeruginosa; Pseudomonas aeruginosa, read-out: MIC90
  MIC90: 16 µg/mL (≈ 39.9 µM)
Pseudomonas aeruginosa; […]
  Number of test isolates at MIC: 1
Enterobacter aerogenes
  MIC range: 0.03 to 0.5 µg/mL
  Mode: 0.12 µg/mL
Enterobacter aerogenes; 0.03 μg/mL
  Cumulative percentage of isolates inhibited at MIC: 10.0%
  Number of test isolates at MIC: 5
Enterobacter aerogenes; 0.06 μg/mL
  Cumulative percentage of isolates inhibited at MIC: 50.0%
  Number of test isolates at MIC: 20
Enterobacter aerogenes; 0.5 μg/mL
  Cumulative percentage of isolates inhibited at MIC: 100.0%
  Number of test isolates at MIC: 2
Enterobacter aerogenes; Klebsiella aerogenes, read-out: MIC50
  MIC50: 0.06 µg/mL (≈ 0.149 µM)
Enterobacter aerogenes; Klebsiella aerogenes, read-out: MIC90
  MIC90: 0.12 µg/mL (≈ 0.299 µM)
Proteus mirabilis
  Mode: 0.25 µg/mL
Proteus mirabilis; 0.5 μg/mL
  Cumulative percentage of isolates inhibited at MIC: 60.0%
  Number of test isolates at MIC: 9
Proteus mirabilis; 1 μg/mL
  Cumulative percentage of isolates inhibited at MIC: 64.0%
  Number of test isolates at MIC: 2
Proteus mirabilis; 4 μg/mL
  Cumulative percentage of isolates inhibited at MIC: 66.0%
  Number of test isolates at MIC: 1
Proteus mirabilis; 8 μg/mL
  Cumulative percentage of isolates inhibited at MIC: 68.0%
  Number of test isolates at MIC: 1
Proteus mirabilis; 16 μg/mL
  Cumulative percentage of isolates inhibited at MIC: 72.0%
  Number of test isolates at MIC: 2
Proteus mirabilis; 32 μg/mL
  Cumulative percentage of isolates inhibited at MIC: 82.0%
  Number of test isolates at MIC: 5
Proteus mirabilis; 64 μg/mL
  Cumulative percentage of isolates inhibited at MIC: 90.0%
  Number of test isolates at MIC: 4
Proteus mirabilis; 128 μg/mL
  Cumulative percentage of isolates inhibited at MIC: 98.0%
  Number of test isolates at MIC: 4
Proteus mirabilis; >128 μg/mL
  Cumulative percentage of isolates inhibited at MIC: 100.0%
  Number of test isolates at MIC: 1
Proteus mirabilis; Proteus mirabilis, read-out: MIC50
  MIC50: 0.5 µg/mL (≈ 1.25 µM)
Proteus mirabilis; Proteus mirabilis, read-out: MIC90
  MIC90: 64 µg/mL (≈ 159 µM)
